Laboratory results: US20100137313A1 (ASTRAZENECA AB, priority 2008, published 2010)

Biological target: S. pneumoniae Topoisomerase IV ATPase (ParE) (Streptococcus pneumoniae serotype 4, UniProt Q59961)
Assay: S. pneumoniae Topoisomerase IV ATPase inhibition
Type: biochemical
Settings: values marked * are an average of two or more data points, read-out: % Inh (13 μM) of S. pneumoniae Topoisomerase IV ATPase
In short: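 Phosphate release by ParE ATPase from S. pneumoniae read colorimetrically (malachite green, 650 nm), enzyme 1.25 nM, ATP 160 μM, salmon sperm DNA present, buffer 20 mM Tris pH 8.0 with 8 mM MgCl2. IC50 over 10 compound concentrations, EDTA (20 μM) and DMSO controls defining inhibition range.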

Sequence of S. pneumoniae Topoisomerase IV ATPase (ParE) (Q59961 whole entry): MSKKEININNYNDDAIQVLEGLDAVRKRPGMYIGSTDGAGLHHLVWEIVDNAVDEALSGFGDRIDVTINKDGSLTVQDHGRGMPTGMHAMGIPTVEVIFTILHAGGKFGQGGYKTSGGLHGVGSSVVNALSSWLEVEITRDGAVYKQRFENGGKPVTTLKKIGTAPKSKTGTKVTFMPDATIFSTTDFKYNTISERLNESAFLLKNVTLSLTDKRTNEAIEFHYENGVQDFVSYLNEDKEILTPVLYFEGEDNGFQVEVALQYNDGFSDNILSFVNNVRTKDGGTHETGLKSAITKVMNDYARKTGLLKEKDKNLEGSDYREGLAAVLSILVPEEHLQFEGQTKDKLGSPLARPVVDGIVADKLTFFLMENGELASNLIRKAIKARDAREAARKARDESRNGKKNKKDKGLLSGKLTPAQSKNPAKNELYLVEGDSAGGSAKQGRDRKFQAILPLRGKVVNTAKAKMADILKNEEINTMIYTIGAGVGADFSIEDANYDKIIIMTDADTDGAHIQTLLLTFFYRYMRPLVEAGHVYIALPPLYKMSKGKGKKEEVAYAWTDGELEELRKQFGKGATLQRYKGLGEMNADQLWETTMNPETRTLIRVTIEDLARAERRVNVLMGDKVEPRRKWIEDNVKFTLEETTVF

SMILES | inhibition at 13 µM
Cc1nccn1-c1nc(Nc2ccc(F)c(Cl)c2)ncc1-c1cccc(/C=C/C(=O)O)c1 [Example 314, (2E)-3-(3-{2-[(3-chloro-4-fluorophenyl)amino]-4-(2-methyl-1H-imidazol-1-yl)pyrimidin-5-yl}phenyl)prop-2-enoic acid] | 83.4%
O=C(O)/C=C/c1cccc(-c2cnc(Nc3ccc(F)c(Cl)c3)nc2-n2cccc2)c1 [Example 315, (2E)-3-(3-{2-[(3-chloro-4-fluorophenyl)amino]-4-(1H-pyrrol-1-yl)pyrimidin-5-yl}phenyl)prop-2-enoic acid] | 62.8%
Cc1cc(C)n(-c2nc(Nc3ccc(F)c(Cl)c3)ncc2-c2cncc(C(=O)O)c2)n1 [Example 316, 5-{2-[(3-chloro-4-fluorophenyl)amino]-4-(3,5-dimethyl-1H-pyrazol-1-yl)pyrimidin-5-yl}pyridine-3-carboxylic acid] | 80%
O=C(O)c1cncc(-c2cnc(Nc3ccc(F)c(Cl)c3)nc2-n2nccn2)c1 [Example 317, 5-{4-(2H-1,2,3-triazol-2-yl)-2-[(3-chloro-4-fluorophenyl)amino]pyrimidin-5-yl}pyridine-3-carboxylic acid] | 84.9%
O=C(O)c1cncc(-c2cnc(Nc3ccc(F)c(Cl)c3)nc2-n2nnc3ccccc32)c1 [Example 318, 5-{4-(1H-benzotriazol-1-yl)-2-[(3-chloro-4-fluorophenyl)amino]pyrimidin-5-yl}pyridine-3-carboxylic acid] | 92.3%
Cc1cc(C(F)(F)F)nn1-c1nc(Nc2ccc(F)c(Cl)c2)ncc1-c1cncc(C(=O)O)c1 [Example 319, 5-{2-[(3-chloro-4-fluorophenyl)amino]-4-[5-methyl-3-(trifluoromethyl)-1H-pyrazol-1-yl]pyrimidin-5-yl}pyridine-3-carboxylic acid] | 90.6%
O=C(O)c1cncc(-c2cnc(Nc3ccc(F)c(Cl)c3)nc2-n2ccc(C(F)(F)F)n2)c1 [Example 320, 5-{2-[(3-chloro-4-fluorophenyl)amino]-4-[3-(trifluoromethyl)-1H-pyrazol-1-yl]pyrimidin-5-yl}pyridine-3-carboxylic acid] | 101%
Cc1cc(C)n(-c2nc(Nc3ccc(F)c(Cl)c3)ncc2-c2cccc(/C=C/C(=O)O)c2)n1 [Example 321, (2E)-3-(3-{2-[(3-chloro-4-fluorophenyl)amino]-4-(3,5-dimethyl-1H-pyrazol-1-yl)pyrimidin-5-yl}phenyl)prop-2-enoic acid] | 83.7%
Cc1cc(C(F)(F)F)nn1-c1nc(Nc2ccc(F)c(Cl)c2)ncc1-c1cccc(/C=C/C(=O)O)c1 [Example 322, (2E)-3-(3-{2-[(3-chloro-4-fluorophenyl)amino]-4-[5-methyl-3-(trifluoromethyl)-1H-pyrazol-1-yl]pyrimidin-5-yl}phenyl)prop-2-enoic acid] | 75%
O=C(O)/C=C/c1cccc(-c2cnc(Nc3ccc(F)c(Cl)c3)nc2-n2ccc(C(F)(F)F)n2)c1 [Example 323, (2E)-3-(3-{2-[(3-chloro-4-fluorophenyl)amino]-4-[3-(trifluoromethyl)-1H-pyrazol-1-yl]pyrimidin-5-yl}phenyl)prop-2-enoic acid] | 99.5%
O=C(O)/C=C/c1cccc(-c2cnc(Nc3ccc(F)c(Cl)c3)nc2-n2nccn2)c1 [Example 324, (2E)-3-(3-{2-[(3-chloro-4-fluorophenyl)amino]-4-(2H-1,2,3-triazol-2-yl)pyrimidin-5-yl}phenyl)prop-2-enoic acid] | 76.9%
O=C(O)/C=C/c1cccc(-c2cnc(Nc3ccc(F)c(Cl)c3)nc2-n2nnc3ccccc32)c1 [Example 325, (2E)-3-(3-{4-(1H-benzotriazol-1-yl)-2-[(3-chloro-4-fluorophenyl)amino]pyrimidin-5-yl}phenyl) prop-2-enoic acid] | 102%
O=C(O)c1cncc(-c2cnc(Nc3ccc(F)c(Cl)c3)nc2-n2cnc(Cl)c2Cl)c1 [Example 327, 5-{2-[(3-chloro-4-fluorophenyl)amino]-4-(4,5-dichloro-1H-imidazol-1-yl)pyrimidin-5-yl}pyridine-3-carboxylic acid] | 99%
O=C(O)c1cncc(-c2cnc(Nc3ccc(F)c(Cl)c3)nc2-n2cnc(C(F)(F)F)c2)c1 [Example 328, 5-{2-[(3-chloro-4-fluorophenyl)amino]-4-[4-(trifluoromethyl)-1H-imidazol-1-yl]pyrimidin-5-yl}pyridine-3-carboxylic acid] | 70.8%
O=C(O)c1cncc(-c2cnc(Nc3ccc(F)c(Cl)c3)nc2-n2ccnn2)c1 [Example 329, 5-{2-[(3-chloro-4-fluorophenyl)amino]-4-(1H-1,2,3-triazol-1-yl)pyrimidin-5-yl}pyridine-3-carboxylic acid] | 116%
O=C(O)/C=C/c1cccc(-c2cnc(Nc3ccc(F)c(Cl)c3)nc2-n2cnc(Cl)c2Cl)c1 [Example 331, (2E)-3-(3-{2-[(3-chloro-4-fluorophenyl)amino]-4-(4,5-dichloro-1H-imidazol-1-yl)pyrimidin-5-yl}phenyl)prop-2-enoic acid] | 59.8%

SMILES | inhibition at 13 µM
O=C(O)/C=C/c1cccc(-c2cnc(Nc3ccc(F)c(Cl)c3)nc2-n2cnc(C(F)(F)F)c2)c1 [Example 332, (2E)-3-(3-{2-[(3-chloro-4-fluorophenyl)amino]-4-[4-(trifluoromethyl)-1H-imidazol-1-yl]pyrimidin-5-yl}phenyl)prop-2-enoic acid] | 62.1%
O=C(O)/C=C/c1cccc(-c2cnc(Nc3ccc(F)c(Cl)c3)nc2-n2ccnn2)c1 [Example 333, (2E)-3-(3-{2-[(3-chloro-4-fluorophenyl)amino]-4-(1H-1,2,3-triazol-1-yl)pyrimidin-5-yl}phenyl)prop-2-enoic acid] | 69.8%
O=C(O)/C=C/c1cccc(-c2cnc(Nc3ccc(F)c(Cl)c3)nc2-n2nc3cccnc3n2)c1 [Example 334, (2E)-3-(3-{2-[(3-chloro-4-fluorophenyl)amino]-4-(2H-[1,2,3]triazolo[4,5-b]pyridin-2-yl)pyrimidin-5-yl}phenyl)prop-2-enoic acid] | 104%
CN(C)CCCNc1nc(Nc2ccc(F)c(F)c2)ncc1-c1ccc(C(=O)O)s1 [Example 335, 5-(2-(3,4-difluorophenylamino)-4-(3-(dimethylamino)propylamino)pyrimidin-5-yl)thiophene-2-carboxylic acid] | 76.5%
CN(C)CCCNc1nc(Nc2ccc(F)c(F)c2)ncc1-c1cccc(/C=C/C(=O)O)c1 [Example 336, (E)-3-(3-(2-(3,4-difluorophenylamino)-4-(3-(dimethylamino)propylamino)pyrimidin-5-yl)phenyl)acrylic acid] | 83.7%
Cc1ccc(Nc2ncc(-c3ccc(C(=O)O)s3)c(NCCCN(C)C)n2)cc1C#N [Example 337, 5-(2-(3-cyano-4-methylphenylamino)-4-(3-(dimethylamino)propylamino)pyrimidin-5-yl) thiophene-2-carboxylic acid] | 64.4%
Cc1ccc(Nc2ncc(-c3cccc(/C=C/C(=O)O)c3)c(NCCCN(C)C)n2)cc1C#N [Example 338, (E)-3-(3-(2-(3-cyano-4-methylphenylamino)-4-(3-(dimethylamino)propylamino)pyrimidin-5-yl)phenyl)acrylic acid] | 58.4%
CN(C)CCCNc1nc(Nc2cc(Cl)cc(Cl)c2)ncc1-c1ccc(C(=O)O)s1 [Example 339, 5-(2-(3,5-dichloro-phenylamino)-4-(3-(dimethylamino)propylamino)pyrimidin-5-yl) thiophene-2-carboxylic acid] | 84.3%
CN(C)CCCNc1nc(Nc2cc(Cl)cc(Cl)c2)ncc1-c1cccc(/C=C/C(=O)O)c1 [Example 340, (E)-3-(3-(2-(3,5-dichlorophenylamino)-4-(3-(dimethylamino)propylamino)pyrimidin-5-yl)phenyl)acrylic acid] | 83.3%
CN(C)CCCNc1nc(Nc2cc(C(F)(F)F)cc(C(F)(F)F)c2)ncc1-c1ccc(C(=O)O)s1 [Example 341, 5-(2-(3,5-bis(trifluoromethyl)phenylamino)-4-(3-(dimethylamino)propylamino)pyrimidin-5-yl) thiophene-2-carboxylic acid] | 87.2%
COc1cc(Cl)c(C)cc1Nc1ncc(-c2ccc(C(=O)O)s2)c(NCCCN(C)C)n1 [Example 342, 5-(2-(4-chloro-2-methoxy-5-methylphenylamino)-4-(3-(dimethylamino)propylamino)pyrimidin-5-yl) thiophene-2-carboxylic acid] | 77%
CCOC(=O)/C=C/c1cccc(-c2cnc(Nc3cc(C)c(Cl)cc3OC)nc2NCCCN(C)C)c1 [Example 343, (E)-ethyl 3-(3-(2-(4-chloro-2-methoxy-5-methylphenylamino)-4-(3-(dimethylamino)propylamino)pyrimidin-5-yl)phenyl)acrylate] | -22.3%
COc1cc(Nc2ncc(-c3cncnc3)c(NCCCN(C)C)n2)cc(OC)c1 [Example 344, N^2-(3,5-dimethoxyphenyl)-N^4-(3-(dimethylamino)propyl)-5,5′-bi pyrimidin-2,4-diamine] | 82%
COc1cc(Nc2ncc(-c3ccc(C(=O)O)s3)c(NCCCN(C)C)n2)cc(OC)c1 [Example 345, 5-(2-(3,5-dimethoxy-phenylamino)-4-(3-(dimethylamino)propyamino)pyrimidin-5-yl) thiophene-2-carboxylic acid] | 82.7%
COc1cc(Nc2ncc(-c3ccc(C(=O)O)s3)c(NCCCN(C)C)n2)cc(C(F)(F)F)c1 [Example 346, 5-{4-[3-(dimethylamino)propylamino]-2-[3-methoxy-5-(trifluoromethyl)phenylamino]pyrimidin-5-yl}thiophene-2-carboxylic acid] | 79.5%
